Experimental data: ChEMBL document CHEMBL6071176, “Development of Phloroglucinol-Linked Tris-Quaternary Ammonium Salt Antimicrobial Peptide Mimics with Low Cytotoxicity and Broad-Spectrum Antibacterial Activity” (J Med Chem, 2024)
≈ marks a conversion by molar mass, not a printed value.

Columns and labels:
[1] = tested on: Staphylococcus aureus; assay: Antimicrobial activity against Staphylococcus aureus assessed as inhibition of growth incubated for 18 hrs by CLSI guidelines based assay; format: functional
[2] = tested on: Enterococcus faecalis; assay: Antimicrobial activity against Enterococcus faecalis assessed as inhibition of growth incubated for 18 hrs by CLSI guidelines based assay; format: functional
[3] = tested on: Escherichia coli; assay: Antimicrobial activity against Escherichia coli assessed as inhibition of growth incubated for 18 hrs by CLSI guidelines based assay; format: functional
[4] = tested on: Stenotrophomonas maltophilia; assay: Antimicrobial activity against Stenotrophomonas maltophilia assessed as inhibition of growth incubated for 18 hrs by CLSI guidelines based assay; format: functional
[5] = Hemolytic activity in sheep red blood cells measured after 1 hr incubation; format: toxicity, cell-based, Ovis aries, Erythrocyte
[6] = Selectivity index, ratio of HC50 for sheep red blood cells to MIC for Staphylococcus aureus; format: toxicity, cell-based, RBC; details: read-out: Selectivity Index
[7] = Cytotoxicity against human Gastric mucosal cells measured after 24 hrs by CCK-8 assay; format: toxicity, cell-based, Gastric mucosal cell

| SMILES | MIC [1] | MIC [2] | MIC [3] | MIC [4] | HC50 at 1 h [5] | selectivity ratio [6] | CC50 at 24 h [7] |
| --- | --- | --- | --- | --- | --- | --- | --- |
| C[N+](C)(CCCCOc1ccccc1)CCCOc1cc(OCCC[N+](C)(C)CCCCOc2ccccc2)cc(OCCC[N+](C)(C)CCCCOc2ccccc2)c1.[Br-].[Br-].[Br-] | 32 µg/mL | 64 µg/mL | 128 µg/mL | 128 µg/mL | > 1280 µg/mL | > 40 |  |
| CS(=O)(=O)c1ccc([C@@H](O)[C@@H](CF)NC(=O)C(Cl)Cl)cc1 [FLORFENICOL] |  |  |  |  |  |  | 121 µg/mL (≈ 339 µM) |
| CCCCCC[N+](C)(C)CCCCOc1cc(OCCCC[N+](C)(C)CCCCCC)cc(OCCCC[N+](C)(C)CCCCCC)c1.[Br-].[Br-].[Br-] | 32 µg/mL | 8 µg/mL | 128 µg/mL | 128 µg/mL | > 1280 µg/mL | > 40 |  |
| C[N+](C)(CCCCc1ccccc1)CCCOc1cc(OCCC[N+](C)(C)CCCCc2ccccc2)cc(OCCC[N+](C)(C)CCCCc2ccccc2)c1.[Br-].[Br-].[Br-] | 8 µg/mL | 16 µg/mL | 128 µg/mL | 128 µg/mL | > 1280 µg/mL | > 160 |  |
| CCCCCCCCCCCC[N+](C)(C)CCCOc1cc(OCCC[N+](C)(C)CCCCCCCCCCCC)cc(OCCC[N+](C)(C)CCCCCCCCCCCC)c1.[Br-].[Br-].[Br-] | 8 µg/mL | 4 µg/mL | 32 µg/mL | 32 µg/mL | 10 µg/mL | 1.25 |  |
| C[N+](C)(CCCOc1cc(OCCC[N+](C)(C)CCCc2ccccc2)cc(OCCC[N+](C)(C)CCCc2ccccc2)c1)CCCc1ccccc1.[Br-].[Br-].[Br-] | 32 µg/mL | 32 µg/mL | > 128 µg/mL | > 128 µg/mL | > 1280 µg/mL | > 40 |  |
| C[N+](C)(CCCOc1ccccc1)CCCOc1cc(OCCC[N+](C)(C)CCCOc2ccccc2)cc(OCCC[N+](C)(C)CCCOc2ccccc2)c1.[Br-].[Br-].[Br-] | 32 µg/mL | 64 µg/mL | > 128 µg/mL | > 128 µg/mL | > 1280 µg/mL | > 40 |  |
| CCCCCCCCCCCC[N+](C)(C)CCCCOc1cc(OCCCC[N+](C)(C)CCCCCCCCCCCC)cc(OCCCC[N+](C)(C)CCCCCCCCCCCC)c1.[Br-].[Br-].[Br-] | 8 µg/mL | 4 µg/mL | 8 µg/mL | 32 µg/mL | 11 µg/mL | 1.38 |  |
| C[N+](C)(CCCCOc1cc(OCCCC[N+](C)(C)CCCc2ccccc2)cc(OCCCC[N+](C)(C)CCCc2ccccc2)c1)CCCc1ccccc1.[Br-].[Br-].[Br-] | 8 µg/mL | 16 µg/mL | > 128 µg/mL | > 128 µg/mL | > 1280 µg/mL | > 160 |  |
| CCCC[N+](C)(C)CCCCOc1cc(OCCCC[N+](C)(C)CCCC)cc(OCCCC[N+](C)(C)CCCC)c1.[Br-].[Br-].[Br-] | 128 µg/mL | 128 µg/mL | 128 µg/mL | 128 µg/mL | > 1280 µg/mL | > 10 |  |
| CCCC[N+](C)(C)CCCCCOc1cc(OCCCCC[N+](C)(C)CCCC)cc(OCCCCC[N+](C)(C)CCCC)c1.[Br-].[Br-].[Br-] | 64 µg/mL | 128 µg/mL | 32 µg/mL | 128 µg/mL | > 1280 µg/mL | > 20 |  |
| C[N+](C)(CCCCCOc1ccccc1)CCCOc1cc(OCCC[N+](C)(C)CCCCCOc2ccccc2)cc(OCCC[N+](C)(C)CCCCCOc2ccccc2)c1.[Br-].[Br-].[Br-] | 4 µg/mL | 8 µg/mL | 32 µg/mL | 32 µg/mL | > 1280 µg/mL | > 320 |  |
| C=C[C@]1(C)C[C@@H](OC(=O)CSC(C)(C)CNC(=O)[C@H](N)C(C)C)[C@]2(C)[C@H](C)CC[C@]3(CCC(=O)[C@H]32)[C@@H](C)[C@@H]1O [VALNEMULIN] |  |  |  |  |  |  | 45.7 µg/mL (≈ 80.9 µM) |
| CCCCCCCCCC[N+](C)(C)CCCCCOc1cc(OCCCCC[N+](C)(C)CCCCCCCCCC)cc(OCCCCC[N+](C)(C)CCCCCCCCCC)c1.[Br-].[Br-].[Br-] | 4 µg/mL | 2 µg/mL | 4 µg/mL | 4 µg/mL | 16 µg/mL | 4 |  |
| CCCCCCCCCCCC[N+](C)(C)CCCCCOc1cc(OCCCCC[N+](C)(C)CCCCCCCCCCCC)cc(OCCCCC[N+](C)(C)CCCCCCCCCCCC)c1.[Br-].[Br-].[Br-] | 16 µg/mL | 2 µg/mL | 64 µg/mL | 64 µg/mL | 12 µg/mL | 0.75 |  |
| C[C@@H](O)[C@H]1C(=O)N2C(C(=O)O)=C(S[C@@H]3CN[C@H](C(=O)N(C)C)C3)[C@H](C)[C@H]12 [MEROPENEM] | 0.5 µg/mL (≈ 1.3 µM) | 2 µg/mL (≈ 5.22 µM) | 1 µg/mL (≈ 2.61 µM) | 1 µg/mL (≈ 2.61 µM) | 1220 µg/mL | 2440 |  |
| CCCCCCCCCCCC[N+](C)(C)CCOc1ccccc1 [DOMIPHEN] |  |  |  |  |  |  | 74.5 µg/mL |

More lines, in order of falling MIC [1], values ahead:

| MIC [1] | MIC [2] | MIC [3] | MIC [4] | SMILES | HC50 at 1 h [5] | selectivity ratio [6] | CC50 at 24 h [7] |
| --- | --- | --- | --- | --- | --- | --- | --- |
| 4 µg/mL | 0.5 µg/mL | 4 µg/mL | 4 µg/mL | CCCCCCCCCC[N+](C)(C)CCCCOc1cc(OCCCC[N+](C)(C)CCCCCCCCCC)cc(OCCCC[N+](C)(C)CCCCCCCCCC)c1.[Br-].[Br-].[Br-] | 34 µg/mL | 8.5 |  |
| 4 µg/mL | 2 µg/mL | > 128 µg/mL | 64 µg/mL | C[N+](C)(CCCCOc1cc(OCCCC[N+](C)(C)CCCOc2ccccc2)cc(OCCCC[N+](C)(C)CCCOc2ccccc2)c1)CCCOc1ccccc1.[Br-].[Br-].[Br-] | > 1280 µg/mL | > 320 |  |
| 2 µg/mL | 4 µg/mL | 64 µg/mL | 32 µg/mL | C[N+](C)(CCCCOc1cc(OCCCC[N+](C)(C)CCCCc2ccccc2)cc(OCCCC[N+](C)(C)CCCCc2ccccc2)c1)CCCCc1ccccc1.[Br-].[Br-].[Br-] | > 1280 µg/mL | > 640 |  |
| 2 µg/mL | 1 µg/mL | 4 µg/mL | 4 µg/mL | CCCCCCCC[N+](C)(C)CCCOc1cc(OCCC[N+](C)(C)CCCCCCCC)cc(OCCC[N+](C)(C)CCCCCCCC)c1.[Br-].[Br-].[Br-] | > 1280 µg/mL | > 640 | < 30 µg/mL |
| 2 µg/mL | 4 µg/mL | 64 µg/mL | 32 µg/mL | C[N+](C)(CCCCOc1ccccc1)CCCCOc1cc(OCCCC[N+](C)(C)CCCCOc2ccccc2)cc(OCCCC[N+](C)(C)CCCCOc2ccccc2)c1.[Br-].[Br-].[Br-] | > 1280 µg/mL | > 640 |  |
| 1 µg/mL | 1 µg/mL | 8 µg/mL | 16 µg/mL | C[N+](C)(CCCCCOc1cc(OCCCCC[N+](C)(C)CCCc2ccccc2)cc(OCCCCC[N+](C)(C)CCCc2ccccc2)c1)CCCc1ccccc1.[Br-].[Br-].[Br-] | > 1280 µg/mL | > 1280 |  |
| 1 µg/mL | 2 µg/mL | 8 µg/mL | 4 µg/mL | CCCCCC[N+](C)(C)CCCCCOc1cc(OCCCCC[N+](C)(C)CCCCCC)cc(OCCCCC[N+](C)(C)CCCCCC)c1.[Br-].[Br-].[Br-] | > 1280 µg/mL | > 1280 | < 30 µg/mL |
| 1 µg/mL | 1 µg/mL | 4 µg/mL | 4 µg/mL | CCCCCCCCCC[N+](C)(C)CCCOc1cc(OCCC[N+](C)(C)CCCCCCCCCC)cc(OCCC[N+](C)(C)CCCCCCCCCC)c1.[Br-].[Br-].[Br-] | 54 µg/mL | 54 |  |
| 1 µg/mL | 2 µg/mL | 16 µg/mL | 16 µg/mL | C[N+](C)(CCCCCOc1ccccc1)CCCCOc1cc(OCCCC[N+](C)(C)CCCCCOc2ccccc2)cc(OCCCC[N+](C)(C)CCCCCOc2ccccc2)c1.[Br-].[Br-].[Br-] | > 1280 µg/mL | > 1280 |  |
| 1 µg/mL | 1 µg/mL | 2 µg/mL | 1 µg/mL | CCCCCCCC[N+](C)(C)CCCCOc1cccc(OCCCC[N+](C)(C)CCCCCCCC)c1OCCCC[N+](C)(C)CCCCCCCC.[Br-].[Br-].[Br-] | 847 µg/mL | 847 |  |
| 1 µg/mL | 2 µg/mL | 1 µg/mL | 2 µg/mL | C[N+](C)(CCCCCOc1ccccc1)CCCCCOc1cc(OCCCCC[N+](C)(C)CCCCCOc2ccccc2)cc(OCCCCC[N+](C)(C)CCCCCOc2ccccc2)c1.[Br-].[Br-].[Br-] | > 1280 µg/mL | > 1280 | < 30 µg/mL |
| 1 µg/mL | 1 µg/mL | 2 µg/mL | 2 µg/mL | C[N+](C)(CCCCCOc1cc(OCCCCC[N+](C)(C)CCCOc2ccccc2)cc(OCCCCC[N+](C)(C)CCCOc2ccccc2)c1)CCCOc1ccccc1.[Br-].[Br-].[Br-] | > 1280 µg/mL | > 1280 | < 30 µg/mL |
| 1 µg/mL | 2 µg/mL | 2 µg/mL | 2 µg/mL | C[N+](C)(CCCCCOc1cc(OCCCCC[N+](C)(C)CCCCc2ccccc2)cc(OCCCCC[N+](C)(C)CCCCc2ccccc2)c1)CCCCc1ccccc1.[Br-].[Br-].[Br-] | > 1280 µg/mL | > 1280 | < 30 µg/mL |
| 1 µg/mL | 2 µg/mL | 2 µg/mL | 4 µg/mL | C[N+](C)(CCCCCOc1cc(OCCCCC[N+](C)(C)CCCCOc2ccccc2)cc(OCCCCC[N+](C)(C)CCCCOc2ccccc2)c1)CCCCOc1ccccc1.[Br-].[Br-].[Br-] | > 1280 µg/mL | > 1280 | < 30 µg/mL |
| 0.5 µg/mL | 0.5 µg/mL | 2 µg/mL | 1 µg/mL | CCCCCCCC[N+](C)(C)CCCCOc1ccc(OCCCC[N+](C)(C)CCCCCCCC)c(OCCCC[N+](C)(C)CCCCCCCC)c1.[Br-].[Br-].[Br-] | > 1280 µg/mL | > 2560 |  |
